Laboratory results from patent US20260263401A1, “Topical composition and uses thereof” (UNIVERSIDADE DE COIMBRA, priority 2022, published 2026).
Values joined by “and” are separate entries in the source; they are usually repeats but may differ in a detail not shown here. Equal values may be shown once. “Also recorded” adds a separate entry of the source.

Columns and labels:
[1] = Cysteine depletion protocol (glutathione in solution depletion); conditions: FIG. 1A
Method: In an embodiment, Cysteine depletion Protocol-Glutathione in solution depletion protocol—“in house development protocol” was applied: • In a test tube, mix 10 μL of the 100 mM test chemical solution with 190 μL of GSH solution (20 μL of GSH 2 mM and 170 μL of PB) and Incubated at RT, protected from light, for 1 h in a tube roller (40 rpm) • […]; [test chemical]f=5 mM; [GSH]f=0.2 mM; • 20 μL of Ellman's reagent 10 mM, a thiol sensitive colorimetric reagent was added. Mix gently by tapping manually in the test tube and incubate for 10 min at RT, in a test tube rotator protected from light; • The absorbance was read in a microplate reader at 405 nm. • Note: For each assay, a fresh Glutathione stock of 50 mM (0.00768 g in 500 μL of PBS) and the second stock of 2 mM in PBS (2 μL of the […] solution+48 μl of PBS) were freshly prepared.
In an embodiment, Control and Test Chemical Preparation was applied: • DNFB is used as the positive control for the assay in every assay run. For the negative control LA is used and for the reference control three types of reference controls are included in each study: • Reference control A is made with the solvent DMSO, with incubation with Ellman's reagent and is used to calculate the maximum fluorescence or absorbance in the presence of CYS containing peptides. […]
Test Chemicals: In an embodiment, test chemicals were pre-weighted into 1.5 mL test tubes and dissolved in 1 mL of DMSO to prepare a 100 mM solution immediately before use. The weight of the test chemical to be added to the vial is determined based on the molecular weight and purity. […]
In an embodiment, for the data analysis, the percent depletion of peptide is determined by using the following formula: […]

[2] = system: NRF2 dependent genes in HaCaT; assay: Expression of NRF2 dependent genes in keratinocytes (real time PCR); type: cell-based, human; conditions: 6 h
Method: HaCaT is cultured with Dulbecco's Modified Eagle's Medium (DMEM) (Sigma-Aldrich, St. Louis, MO, USA), supplemented with 10% (v/v) heat-inactivated fetal bovine serum (FBS), 1% (v/v) antibiotic solution (100 U/mL penicillin, 100 μg/mL streptomycin) (Gibco, Carlsbad, CA, USA), 3.7 g/L sodium bicarbonate and 1 mM sodium pyruvate (Sigma-Aldrich, St. Louis, MO, USA).
In an embodiment, HaCaT cells are seeded in 6-well plates at a density of 6×10^5 cells/well and allowed to adhere for 24 h. After that, cells are incubated for 24 h with exposure medium (control) or treated with 10 mM of NAC, 10 mM of LYS, 8 μM of DNFB, 100 μM of MI, or 10 mM+DNFB, 10 mM LYS+DNFB and 10 mM+MI, 10 mM LYS+MI for 6 h or 24 h.
In an embodiment, total RNA (ribonucleic acid) is extracted from HaCaT treated cells, as previously described by our group [37], with NZYol reagent, according to the manufacturer's instructions and its concentration is determined by OD260 measurement using a NanoDrop spectrophotometer (Thermo Scientific, Wilmington, DE, USA). Samples are stored in RNA Storage Solution at −80° C. until use. Total RNA (1 g) is reverse-transcribed using the iScript Select cDNA Synthesis Kit, and real-time reverse transcriptase-polymerase chain reaction (RT-PCR) reactions are performed, in duplicate for each sample, on a Bio-Rad MyCycler iQ5 (Hercules, CA, USA), as previously described by our group [38].
In an embodiment, after amplification, a threshold is set for each gene and Ct values are calculated for all samples. Gene expression changes are analyzed using Bio-Rad CFX Maestro 1.1 system software (Hercules, CA, USA). The results are normalized using Hprt-1 as the reference gene. Primer sequences are designed using Beacon Designer software version 7.7 (Premier Biosoft International, Palo Alto, CA, USA) and thoroughly tested.

[3] = system: THP-1 cells; assay: Maturation of THP-1 cells assessed by up-regulation of co-stimulatory molecules CD86 and CD54; conditions: for CD54 and CD86 maturation levels, pre-incubation before allergen: pre-incubation (20 mM) before 24 h DNFB (8 μM) and MI (100 μM); for levels of CD54 and CD86, allergen alone: 24 h, DNFB 8 μM, MI 100 μM
Method: In an embodiment, the THP-1 cell line has been used as a dendritic cell (DC) surrogate for skin sensitizers hazard, following the OECD guidelines. […] The THP-1 cells are stabilized overnight at a density of 5×10^5 cells/mL. On the day after, cells are seeded in 12-well plates at a density of 8×10^5 cells/well and incubated for 24 h with medium (control), Dimethyl sulfoxide (DMSO) (allergens solvent) or with 20 mM of each inhibitor of ACD (NAC), (LYS) or mixture (NAC+LYS). In addition, sensitization is induced with the strong skin allergen 1-fluoro-2,4-dinitrobenzene (DNFB) (8 μM) or Methylisothiazolinone (MI) (100 μM) for 24 h. At the end of the incubation period, cells are washed with ice-cold PBS supplemented with 1% (v/v) inactivated FBS, centrifuged at 300×g for 5 min at 4° C. and pellets are dissolved in ice-cold PBS supplemented with 1% (v/v) inactivated FBS. Then, 100 µL of the cell suspension are incubated with, or without, 3 μL of anti-human CD54 antibody (#353111, Biolegend, San Diego, CA, USA) or anti-human CD86 (#305414, Biolegend, San Diego, CA, USA) antibody for 30 min at 4° C. […] A total of 1×10^4 living cells are considered for analysis. The CD86 and CD54 levels are analyzed by flow cytometry with the acquisition channels FL1 and FL4. Based on the geometric mean fluorescence intensity (MFI), the relative fluorescence intensity (RFI) of CD86 and CD54 for positive control cells and chemical-treated cells is calculated according to the following equation: […]

[4] = system: Poly-L-Lysine Hydrobromide (PLL); assay: Lysine depletion protocol (in chemico reactivity towards lysine); conditions: 20 mM molecule incubated 1 h with DNFB 5 mM; FIG. 1B
Method: In an embodiment, a Lysine depletion Protocol—“in house development protocol” was applied, comprising: Dissolve 0.01 g of Poly-L-Lysine Hydrobromide (PLL) (Sigma, P1399) in 100 mL of purified water (use within 2 months). Filter the solution with a syringe filter to remove aggregates and store ate 4° C. for further use. For plate coating add 50 μL of PLL to each well of the 96 black bottom glass microplate (Corning ref 45806) and incubate for 2 hours at 37° C. or 24 h at room temperature.
In an embodiment, after the coating procedure, the contents of the plate were discarded into a sink and the plate is washed 3 times with 200 μL of PBS per well. Blot any residual PBS by firmly tapping the plate upside-down on absorbent paper. 20 mM of each potential ACD inhibitory molecule/mixture is added and incubated with 70 μl of the strong skin sensitizer 1-fluoro-2,4-dinitrobenzene (DNFB) (5 mM in DMSO) for 1h; the mixture was transferred to the plate and incubated for 24 h at 37° C. The contents of the plate were discarded and the wells were washed 3 times with PBS as previously reported. 70 μL of 10 μM Fluorescein-5-Ex-Succinimidyl Ester (FSE) were added and incubated for 1 h in the dark at 37° C. The contents of the plate were discarded; the wells were washed 3 times with PBS as previously stated. The fluorescence was read in a microplate reader (Exc 485±20 nm and Em 530±30 nm). Synergy™ HT plate reader (BioTek Instruments, Inc., Winooski, VT, USA): Bottom read with a sensibility of 50. […]
In an embodiment, Reference control A is made with the solvent DMSO, with incubation with FSE and is used to calculate the maximum fluorescence or absorbance in the presence of LYS. […]
In an embodiment, Test chemicals were pre-weighted into 1.5 mL test tubes and dissolved in 1 mL of DMSO to prepare a 100 mM solution immediately before use. The weight of the test chemical to be added to the vial was determined based on the molecular weight and purity. […]
In an embodiment, for the data Analysis the percentage of peptide depletion is determined by using the following formula: […]

[5] = chelating agent; cited from earlier work
[6] = system: BALB/c mice; assay: Murine local lymph node assay (BRDU-LLNA, flow cytometry); conditions: for skin ulcerations, allergen alone (mice ears): topical on ears, days 1-3
Method: In vivo validation of the efficacy of the hydrogel enriched with the best mixture of molecules, to avoid the development of skin sensitization using the murine local lymph node assay (LLNA)
This event can be confirmed using the in vivo test Local lymph node assay (LLNA), which is evaluated by flow cytometry (FCM) using the OECD Guideline for the testing of chemicals: BRDU (bromodeoxyuridine) ELISA (enzyme linked immunosorbent assay) or FCM 442B, as previously described and revised on OECD TG 442B [41].
During the entire procedure, the daily weight record is made to assess the welfare of the animals. […]
In an embodiment, on day 5, animals are intraperitoneally injected with 100 μl of BrdU mixture (20 mg/mL) in PBS. […] LNCs are stained with trypan blue (Sigma) and counted using a hemocytometer. LNCs (1.5×10^6 cells/mL) are prepared using a commercially FITC BrdU Flow Kit-Catalog No. 559619 (BD Biosciences, San Jose, CA, USA) and further analyzed by flow cytometry using a BD Accuri™ C6 Flow Cytometer (BD Biosciences, San Jose, CA, USA). Stimulation index (SI) values for each sample are calculated using the formula described in the OECD test guideline (TG 442B) [41].

[7] = system: SkinEthic™ Reconstructed Human Epidermis (RHE); assay: Skin irritation, SkinEthic Reconstructed Human Epidermis (RHE), MTT assay, OECD TG 439; type: cell-based; conditions: 42 min exposure, 42 h post-incubation, three tissue replicates, relative to PBS control, <50% = irritant, sulfate
Method: In an embodiment, skin irritation is evaluated using the SkinEthic™ Reconstructed Human Epidermis (RHE) model (EPISKIN Laboratories, Lyon, France), in compliance with the OECD Test Guideline No. 439-In Vitro Skin Irritation: Reconstructed
Human Epidermis Test Method. The RHE model consists of a differentiated three-dimensional epi-dermal tissue of human keratinocytes grown on a 0.5 cm^2 surface inert polycarbonate filter in a chemically defined medium at the air-liquid interface. Two specific media provided by EPISKIN are used: maintenance and growth media. […] The experiment also includes other inserts treated with PBS or 5% (w/v in water) SDS used as negative and positive controls, respectively. […] Tissue viability is assessed using the MTT (3-(4,5-dimethylthiazol-2-yl)-2,5-diphenyl-2H-tetrazolium bromide) assay. For that, tissues are incubated with MTT (1 mg/mL) at 37° C. for 3h; then the MTT solution was removed, and formazan crystals were dissolved with isopropanol. The absorbance was measured at 570 nm using a SpectraMax Plus 384 Spectrophotometer. […] If the tissue viability value is <50%, the samples are classified as irritants.

[8] = incubated before DNFB, vs DNFB alone
[9] = incubated before MI, vs MI alone

In the case of `N[C@@H](CS)C(=O)O` [CYS, cysteine], the “reactivity of the strong allergen DNFB towards cysteine (Glutathione depletion)” value [1] is reported as “significantly inhibit”, the HMOX1 expression [2, 8] is reported as “significantly decrease” and the TRX1 expression [2, 8] is reported as “significantly decrease”. The “CD54 and CD86 maturation levels, pre-incubation before allergen” value (from here on “CD54 and CD86 maturation levels”) [3] was “significantly decrease” and the “reactivity of the strong allergen DNFB towards lysine (Lysine depletion)” value [4] was “significantly inhibit”.
For `CSCC[C@H](N)C(=O)O` [MET, methionine], the GST expression [2, 9] was “significantly decrease”, the NQO1 expression [2, 9] was “significantly decrease” and the “CD54 and CD86 maturation levels” value [3] was “significantly decrease”.
For `O=C(O)CN(CCN(CC(=O)O)CC(=O)O)CCN(CC(=O)O)CC(=O)O` [diethylenetriaminepentaacetic], the “prevention of nickel, chromium, and copper dermatitis” value [5] is listed as “can prevent”.
For `Cn1sccc1=O` [MI, Methylisothiazolinone, reference compound], the “skin ulcerations, allergen alone (mice ears)” value [6] was “induce skin ulcerations” and the “levels of CD54 and CD86, allergen alone” value [3] was “significantly increases; also recorded: increase”.
In the case of `N[C@@H](CCC(=O)N[C@@H](CS)C(=O)NCC(=O)O)C(=O)O` [GSH, Glutathione], the HMOX1 expression [2, 8] is reported as “significantly decrease”, the SOD1 expression [2, 8] is reported as “significantly decrease” and the HMOX1 expression [2, 9] is reported as “significantly decrease”. For the same compound, the “CD54 and CD86 maturation levels” value [3] was “significantly decrease”.
In the case of `CCCCCCCCCCCCOS(=O)(=O)[O-].[Na+]` [SDS, sodium dodecyl sulfate], the “Tissue viability (%)” value ([7]; listed as SDS (5%)) is reported as 1.41% and 1.44% and 1.62% and the “Tissue viability (%)” value [7] is reported as “significantly decrease”.
For `N[C@@H](CCS)C(=O)O` [HOMO, homocysteine], the HMOX1 expression [2, 8] was “significantly decrease”, the SOD1 expression [2, 8] was “significantly decrease” and the TRX1 expression [2, 9] was “significantly decrease”. For the same compound, the “CD54 and CD86 maturation levels” value [3] was “significantly decrease”.
For `O=C(O)C(S)C(S)C(=O)O` (stereo not shown) [DMSA, 2,3 dimercaptosuccinic acid], the “CD54 and CD86 maturation levels” value [3] was “significantly decrease”.
In the case of `O=[N+]([O-])c1ccc(F)c([N+](=O)[O-])c1` [DNFB, 1-fluoro-2,4-dinitrobenzene, reference compound], the “presence of eosinophils in the ears (histology)” value ([6]; DNFB treated ears, FIG. 13B (gel 100 mM)) is reported as “presence of eosinophils”, the “skin ulcerations, allergen alone (mice ears)” value [6] is reported as “induce skin ulcerations” and the “levels of CD54 and CD86, allergen alone” value [3] is reported as “significantly increases; also recorded: increase”.
